“And” between values parts separate entries of the source, which are not always exact repeats. Equal values may be shown once. Inconclusive results and toxic doses are left out. Rule for the calls: active = survival T/C of 150% or more; inactive = T/C below 125% in these data.
Test system: CD2F1 mice, L1210 leukemia ip, survival T/C
Test: NCI In Vivo Anticancer Drug Screen. Data for tumor model L1210 Leukemia (intraperitoneal) in CD2F1 (CDF1) mice
Conditions: higher = longer survival
How it was run: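 Vehicle-treated tumor-bearing mice served as controls (C) for compound-treated mice (T). Reported figure is T divided by C.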

[1] = endpoint: mean survival time, dose: 100.0 mg/kg/injection, schedule: Q04DX002 (ip), vehicle: saline with Tween-80
[2] = endpoint: mean survival time, dose: 200.0 mg/kg/injection, schedule: Q04DX002 (ip), vehicle: saline with Tween-80
[3] = endpoint: mean survival time, dose: 400.0 mg/kg/injection, schedule: Q04DX002 (ip), vehicle: saline with Tween-80
[4] = endpoint: mean survival time, dose: 25.0 mg/kg/injection, schedule: Q01DX009 (ip), vehicle: saline with Tween-80
[5] = endpoint: mean survival time, dose: 50.0 mg/kg/injection, schedule: Q01DX009 (ip), vehicle: saline with Tween-80
[6] = endpoint: mean survival time, dose: 100.0 mg/kg/injection, schedule: Q04DX003 (ip), vehicle: saline with Tween-80
[7] = endpoint: mean survival time, dose: 100.0 mg/kg/injection, schedule: Q04DX003 (ip), vehicle: saline
[8] = endpoint: mean survival time, dose: 200.0 mg/kg/injection, schedule: Q04DX003 (ip), vehicle: saline
[9] = endpoint: mean survival time, dose: 400.0 mg/kg/injection, schedule: Q04DX003 (ip), vehicle: saline
[10] = endpoint: mean survival time, dose: 200.0 mg/kg/injection, schedule: Q04DX003 (ip), vehicle: saline with Tween-80
[11] = endpoint: mean survival time, dose: 100.0 mg/kg/injection, schedule: Q01DX001 (ip), vehicle: saline with Tween-80
[12] = endpoint: mean survival time, dose: 100.0 mg/kg/injection, schedule: Q01DX009 (ip), vehicle: saline with Tween-80
[13] = endpoint: mean survival time, dose: 200.0 mg/kg/injection, schedule: Q01DX001 (ip), vehicle: saline with Tween-80
[14] = endpoint: mean survival time, dose: 200.0 mg/kg/injection, schedule: Q01DX009 (ip), vehicle: saline with Tween-80
[15] = endpoint: mean survival time, dose: 400.0 mg/kg/injection, schedule: Q04DX003 (ip), vehicle: saline with Tween-80

Measured: T/C

CC1=COC(Cc2ccc(Cl)cc2)C(c2ccccc2)(c2ccccc2)C1=O (stereo not drawn)
inactive: endpoint: mean survival time, dose: 100.0 mg/kg/injection, schedule: Q01DX001 (ip), vehicle: saline sonified 105 % of control | [1] 89 % of control | endpoint: mean survival time, dose: 200.0 mg/kg/injection, schedule: Q01DX001 (ip), vehicle: saline sonified 94 % of control | [2] 89 % of control | endpoint: mean survival time, dose: 400.0 mg/kg/injection, schedule: Q01DX001 (ip), vehicle: saline sonified 90 % of control | [3] 89 % of control

CC1OC(n2cc(Br)c(=O)[nH]c2=O)C(O)C(O)C1O (stereo not drawn)
inactive: endpoint: mean survival time, dose: 12.5 mg/kg/injection, schedule: Q01DX005 (ip), vehicle: water 99 % of control | endpoint: mean survival time, dose: 25.0 mg/kg/injection, schedule: Q01DX005 (ip), vehicle: water 101 % of control | endpoint: mean survival time, dose: 50.0 mg/kg/injection, schedule: Q01DX005 (ip), vehicle: water 105 % of control | endpoint: mean survival time, dose: 100.0 mg/kg/injection, schedule: Q01DX005 (ip), vehicle: water 100 % of control | endpoint: mean survival time, dose: 200.0 mg/kg/injection, schedule: Q01DX005 (ip), vehicle: water 99 % of control

CC1=C/C(=N\N=C2/C=C(C)CC(C)(C)C2)CC(C)(C)C1
inactive: endpoint: mean survival time, dose: 100.0 mg/kg/injection, schedule: Q04DX003 (ip), vehicle: Klucel (hydroxypropylcellulose) (HPC) 93 % of control | endpoint: mean survival time, dose: 200.0 mg/kg/injection, schedule: Q04DX003 (ip), vehicle: Klucel (hydroxypropylcellulose) (HPC) 91 % of control | endpoint: mean survival time, dose: 400.0 mg/kg/injection, schedule: Q04DX003 (ip), vehicle: Klucel (hydroxypropylcellulose) (HPC) 89 % of control

CC(C#N)CCCC#N (stereo not drawn)
inactive: [4] 100 % of control | [5] 102 % of control | [6] 101 % of control

C[n+]1cccc(NC(=O)c2ccc(NC(=O)c3ccc(C(=O)Nc4ccc(NC(=N)N)cc4)cc3)cc2)c1
active: endpoint: mean survival time, dose: 1.3 mg/kg/injection, schedule: Q01DX009 (ip), vehicle: saline 173 % of control | endpoint: mean survival time, dose: 2.0 mg/kg/injection, schedule: Q01DX009 (ip), vehicle: saline 307 % of control | endpoint: mean survival time, dose: 3.0 mg/kg/injection, schedule: Q01DX009 (ip), vehicle: saline 259 % of control
inactive: endpoint: mean survival time, dose: 8.0 mg/kg/injection, schedule: Q01DX009 (ip), vehicle: saline 115 % of control | endpoint: mean survival time, dose: 12.0 mg/kg/injection, schedule: Q01DX009 (ip), vehicle: saline 112 % of control | endpoint: mean survival time, dose: 18.0 mg/kg/injection, schedule: Q01DX009 (ip), vehicle: saline 97 % of control

CCCCCCCCCCCC(=O)/C=C/Sc1n[nH]c(=O)[nH]c1=O
inactive: endpoint: mean survival time, dose: 12.5 mg/kg/injection, schedule: Q01DX005 (ip), vehicle: distilled water + Tween-80 102 % of control | endpoint: mean survival time, dose: 25.0 mg/kg/injection, schedule: Q01DX005 (ip), vehicle: distilled water + Tween-80 104 % of control | endpoint: mean survival time, dose: 50.0 mg/kg/injection, schedule: Q01DX005 (ip), vehicle: distilled water + Tween-80 100 % of control | endpoint: mean survival time, dose: 100.0 mg/kg/injection, schedule: Q01DX005 (ip), vehicle: distilled water + Tween-80 102 % of control

CCOc1ccc2nc3cc(N)ccc3c(N)c2c1
inactive: endpoint: mean survival time, dose: 25.0 mg/kg/injection, schedule: Q01DX009 (ip), vehicle: saline 101 % of control | endpoint: mean survival time, dose: 50.0 mg/kg/injection, schedule: Q01DX009 (ip), vehicle: saline 113 % of control | endpoint: mean survival time, dose: 100.0 mg/kg/injection, schedule: Q01DX009 (ip), vehicle: saline 122 % of control and 101 % of control | [7] 114 % of control | [8] 105 % of control | [9] 105 % of control

C=C1CC(C)(Cn2c(N)nc3nc[nH]c3c2=O)OC1=O (stereo not drawn)
inactive: endpoint: median survival time, dose: 5.38 mg/kg/injection, schedule: Q01DX005 (ip), vehicle: water 97 % of control | endpoint: median survival time, dose: 10.75 mg/kg/injection, schedule: Q01DX005 (ip), vehicle: water 97 % of control | endpoint: median survival time, dose: 21.5 mg/kg/injection, schedule: Q01DX005 (ip), vehicle: water 97 % of control | endpoint: median survival time, dose: 43.0 mg/kg/injection, schedule: Q01DX005 (ip), vehicle: water 112 % of control

CC1(C)N=C(N)N=C(N)N1c1ccc(CCc2ccccc2)cc1
inactive: endpoint: mean survival time, dose: 12.5 mg/kg/injection, schedule: Q01DX009 (ip), vehicle: saline with Tween-80 95 % of control | [4] 87 % of control

CC(C)(C)c1ccc(OC(=S)c2ccccc2)cc1
inactive: [1] 104 % of control | [2] 89 % of control | [3] 89 % of control

C1CCC2C[N-]CCC2C1.C1CCC2C[N-]CCC2C1.C1CCC2C[N-]CCC2C1.C1CCC2C[N-]CCC2C1.[I][Fe][I] (stereo not drawn)
inactive: [6] 108 % of control | [10] 106 % of control

COc1ccc(OC)c(NC(=O)Nc2cc([N+](=O)[O-])ccc2Cl)c1
inactive: [11] 91 % of control | [12] 93 % of control and 95 % of control | [1] 92 % of control and 95 % of control | [6] 101 % of control | [13] 88 % of control | [14] 115 % of control and 98 % of control | [2] 91 % of control and 96 % of control | [10] 96 % of control | endpoint: mean survival time, dose: 400.0 mg/kg/injection, schedule: Q01DX009 (ip), vehicle: saline with Tween-80 100 % of control and 101 % of control | [3] 96 % of control and 104 % of control | [15] 96 % of control

Nc1nc(N)c2c(n1)NCN(Cc1ccc(Cl)c(Cl)c1)C2
inactive: endpoint: mean survival time, dose: 0.75 mg/kg/injection, schedule: Q01DX009 (ip), vehicle: water 102 % of control | endpoint: mean survival time, dose: 1.5 mg/kg/injection, schedule: Q01DX009 (ip), vehicle: water 98 % of control | endpoint: mean survival time, dose: 3.0 mg/kg/injection, schedule: Q01DX009 (ip), vehicle: water 102 % of control | endpoint: mean survival time, dose: 6.0 mg/kg/injection, schedule: Q01DX009 (ip), vehicle: water 102 % of control | endpoint: mean survival time, dose: 12.0 mg/kg/injection, schedule: Q01DX009 (ip), vehicle: water 100 % of control | endpoint: mean survival time, dose: 24.0 mg/kg/injection, schedule: Q01DX009 (ip), vehicle: water 102 % of control | endpoint: mean survival time, dose: 50.0 mg/kg/injection, schedule: Q01DX009 (ip), vehicle: water 94 % of control

CC(Br)C(=O)NC(CC(N)=O)C(=O)O (stereo not drawn)
inactive: [6] 102 % of control | [10] 98 % of control

CCCCCC(C)O[Si](C)OCC (stereo not drawn)
inactive: [7] 96 % of control | [8] 106 % of control | [9] 108 % of control

COc1ccc(/C=N/NC(=O)CNC(=O)Nc2cccc(C(F)(F)F)c2)cc1
inactive: [5] 92 % of control | [12] 88 % of control | [14] 92 % of control

[Cl][Pt+2][Cl].[NH-]c1ccc(S(N)(=O)=O)cc1.[NH-]c1ccc(S(N)(=O)=O)cc1
inactive: endpoint: mean survival time, dose: 25.0 mg/kg/injection, schedule: Q04DX003 (ip), vehicle: saline with Tween-80 90 % of control | endpoint: mean survival time, dose: 50.0 mg/kg/injection, schedule: Q04DX003 (ip), vehicle: saline with Tween-80 98 % of control | [6] 94 % of control | [10] 102 % of control | [15] 102 % of control

O=C1OC(=O)c2c1ccc1ccc(Cl)cc21
inactive: [12] 102 % of control | [14] 96 % of control

Cc1ccc(S(=O)(=O)OC2COC3C(OS(=O)(=O)c4ccc(C)cc4)COC23)cc1 (stereo not drawn)
inactive: [11] 93 % of control | [13] 89 % of control | endpoint: mean survival time, dose: 400.0 mg/kg/injection, schedule: Q01DX001 (ip), vehicle: saline with Tween-80 88 % of control

Nc1nc(N)c2nc(CCSc3ccc(C(=O)NC(CCC(=O)O)C(=O)O)cc3)cnc2n1 (stereo not drawn)
inactive: endpoint: mean survival time, dose: 0.38 mg/kg/injection, schedule: Q01DX009 (ip), vehicle: sodium bicarbonate 96 % of control | endpoint: mean survival time, dose: 0.75 mg/kg/injection, schedule: Q01DX009 (ip), vehicle: sodium bicarbonate 100 % of control | endpoint: mean survival time, dose: 1.5 mg/kg/injection, schedule: Q01DX009 (ip), vehicle: sodium bicarbonate 104 % of control | endpoint: mean survival time, dose: 3.0 mg/kg/injection, schedule: Q01DX009 (ip), vehicle: sodium bicarbonate 95 % of control | endpoint: mean survival time, dose: 6.0 mg/kg/injection, schedule: Q01DX009 (ip), vehicle: sodium bicarbonate 91 % of control | endpoint: mean survival time, dose: 12.0 mg/kg/injection, schedule: Q01DX009 (ip), vehicle: sodium bicarbonate 93 % of control | endpoint: mean survival time, dose: 24.0 mg/kg/injection, schedule: Q01DX009 (ip), vehicle: sodium bicarbonate 102 % of control | endpoint: mean survival time, dose: 48.0 mg/kg/injection, schedule: Q01DX009 (ip), vehicle: sodium bicarbonate 106 % of control
